Experimental data taken from publication PMC12226970, “A subcellularly targeted photocaged inhibitor for mitochondrial carbonic anhydrase V” (Dalton Transactions (Cambridge, England : 2003), 2025).

Molecular target: T1, bCA-II (Bos taurus, UniProt P00921)
T1 construct: gene CA2
Assay: NPA (4-nitrophenyl acetate) hydrolysis assay with isolated bCA-II after […] nm photodeprotection of PCEM
Format: biochemical

T1 sequence (P00921 2-260): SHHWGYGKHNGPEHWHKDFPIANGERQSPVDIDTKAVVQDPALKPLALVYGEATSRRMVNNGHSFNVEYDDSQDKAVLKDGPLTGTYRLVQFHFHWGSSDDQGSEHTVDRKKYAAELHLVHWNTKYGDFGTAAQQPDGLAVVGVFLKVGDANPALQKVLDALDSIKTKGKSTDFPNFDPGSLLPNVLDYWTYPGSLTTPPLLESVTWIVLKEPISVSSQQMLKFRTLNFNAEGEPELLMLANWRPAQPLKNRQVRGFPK

- IC50: 2900 nM
SMILES: NS(=O)(=O)c1nc2ccc(OCCC[n+]3ccccc3)cc2s1 [dPCEM]
